Test results: patent publication US12121565B2, “Methods of treatment of specific cancers with NLRP3 inhibitors and anti-PD1/PD-L1 antibodies” (Duke University, priority 2019, dated 2024)

Key:
[1] = tested on: BRAFV600EPTEN−/− melanoma cells; test: MTT cell proliferation assay in culture; format: cell-based, mouse; conditions: NLRP3 inhibitor (MCC950) in culture
Description: FIG. 14A-H. (A) NLRP3 Western blot analysis of NTC and NLRP3KD BRAFV600EPTEN−/− melanoma cells. (B) Representative dot plots of PMN-MDSC and CD8+ T cell flow cytometry analysis of resected BRAFV600EPTEN^−/−-NTC and BRAFV600EPTEN^−/−-NLRP3KD stable cell lines. Representative of 2 independent experiments. (C) Top, MTT cell proliferation assay of BRAFV600EPTEN^−/−-NTC, BRAFV600EPTEN−/−-NLRP3KD, BRAFV600EPTEN^−/−-PDL1KD stable cell lines in culture. ns, non-significant. Bottom, MTT cell proliferation assay of BRAFV600EPTEN−/−melanoma cells following treatment with NLRP3 inhibitor (MCC950) in culture. Each performed in triplicate. (D) Tumor growth curve of BRAFV600EPTEN^−/−-NLRP3KDmelanomas with CD8+ T cell ablation. Mice treated with anti-CD8 ab ip daily×3 days followed by anti-CD8 ab one week later (gray boxes). BRAFV600EPTEN^−/−-NTC control tumors also included (n=5). (E) Plasma HSP70 ELISA of BRAFV600EPTEN^−/− melanoma-bearing mice following treatment with IgG isotype control ab, anti-PD-1 ab, or anti-PD-1 ab+MCC950 NLRP3 inhibitor (NLRP3i) (n=4/group). NTC, non-targeted control. KD, knockdown. (F) IL-1β qrt-PCR analysis of BRAFV600EPTEN−/− melanoma cells (n=3). Data normalized to TLR9 expression. (G) Above, IL-1β ELISA of BRAFV600EPTEN−/−-melanoma cell line supernatant after IFNγ/anti-PD-L1 ab treatment in vitro (n=3). […]

[2] = tested on: syngeneic BRAFV600E PTEN−/− melanomas; test: Syngeneic transplant tumor study: tumor growth, flow cytometry, Western blot, ELISA, qRT-PCR; format: in vivo, mouse
Procedure: B6.Cg-Braf^tm1MmcmPten^tm1Hwu Tg(Tyr-cre/ERT2 H-2^b)13Bos/BosJ transgenic mice were subdermally injected with 4-Hydroxytomoxifen (4-HT) (Sigma, H6278-50MG CCF, 38.75 μg/mouse) to induce primary melanoma development at the base of the tail. Mice were randomly assigned to treatment cohorts once tumor volumes reached 64 mm^3 (19, 30, 50). Depending on the experiment, mice were treated with the following agents: CXCR2 inhibitor (AZD5069, AstraZeneca) at 100 mg/kg per os (po) twice daily, NLRP3 inhibitor (MCC950) 10 mg/kg i.p every other day, anti-PD1 ab (BioXCell) or rat IgG2a isotype control (BioXCell) at 200 μg by i.p. injection every 3 days, Dacarbazine (50 mg/kg or 75 mg/kg, Sigma-Aldrich, D2390) by i.p. injection once every other day. Melanoma growth was monitored by orthogonal caliper measurements every 3 days.
Braf^V600EPten^−/−, Braf^V600EPten^−/−-NTC, Braf^V600EPten^−/−-Wnt5a^KD, Braf^V600EPten^−/−-CXCL5^KD, Braf^V600EPten^−/−-PDL1^KD, and Braf^V600EPten^−/−-NLRP3^KD cell lines (0.5×10^5-1×10^5 cells) were implanted by subcutaneous injection into the base of the tail of syngeneic C57BL/6 mice. Tumor growth was monitored by caliper measurement every 3 days and treatment was initiated when tumor volumes reached 64 mm^3. Tumor volume was calculated according to the formula: cm^3=[(length (cm)×(width (cm))^2]/2.
One million cells were stained with 1 μg per million cells of each fluorochrome conjugated antibodies or commercially available dyes according to the standard protocols and analyzed using a FACSCanto II or LSRII (Becton Dickinson). Cells were stained with Fc receptor blocking antibodies followed by a live/dead discriminator (CellTrace Violet, ThermoFisher, C34571), then by conjugated antibodies for 30 min at 4° C. Cell number was calculated by hemocytometer. Flow cytometry data was analyzed using Flowjo software v10.3.
Tumor tissue or cells were homogenized in NP40 lysis buffer (Sigma-Aldrich) supplemented with complete protease inhibitor and phosphatase inhibitor (Roche). Cells were lysed in Laemmli sample buffer after treatment and subjected to SDS-polyacrylamide gel electrophoresis. After transferring onto PVDF membranes (Bio-Rad), monoclonal and polyclonal primary antibodies and appropriate HRP-conjugated secondary antibodies were utilized for blotting. For the immunoprecipitation assays, cells were lysed with TBS buffer (50 mM Tris-HCl (pH 7.4), 150 mM NaCl) containing 0.5% Triton X-100, EDTA-free protease inhibitor cocktail and phosphatase inhibitor cocktail, precleared with protein A/G beads, and then incubated with 1 μg of appropriate antibodies or isotype control IgG on a rotator overnight at 4° C. then incubated with protein A/G-agarose at 4° C. for 1 hour. After 5 washes with TBS buffer, immunoprecipitated complexes were eluted in sample buffer by boiling and subjected to immunoblot analysis. Immunoblots were visualized by chemiluminescence substrate (ThermoFisher) and imaged by a ChemiDoc XRSplus system (BioRad). For the ASC polymerization assay, cells were lysed with TBS buffer containing 0.5% Triton X-100, EDTA-free protease inhibitor cocktail and phosphatase inhibitor cocktail. The lysates were centrifuged at 4,000 g at 4° C. for 15 min. For the detection of ASC oligomerization, the Triton-insoluble pellets were washed twice with TBS buffer and then resuspended in 500 μl TBS buffer. The resuspended pellets were crosslinked for 30 min at room temperature with 2 mM Disuccinimidyl suberate (DSS) (Thermo Fisher Scientific, 21655) and then centrifuged for 15 min at 6,000 g. The pellets were dissolved in SDS sample buffer.
Total RNA was isolated by RNeasy Plus Mini Kit (Qiagen, 74134). RNA (1000 ng) was used in cDNA Synthesis (iScript Reverse Transcription Supermix, BioRad, 1708841). Data analysis utilized the PrimePCR Analysis Software (BioRad). […]

[3] = combined anti-PD-1 Ab and NLRP3 inhibitor

With `CC(C)(O)c1coc(S(=O)(=O)NC(=O)Nc2c3c(cc4c2CCC4)CCC3)c1` [MCC950, N-[[(1,2,3,5,6,7-hexahydro-s-indacen-4-yl)amino]carbonyl]-4-(1-hydroxy-1-methylethyl)-2-furansulfonamide] the “impact on tumor cell proliferation in vitro” value [1] was “neither pharmacologic inhibition of NLRP3 nor genetic silencing of Nlrp3 had any impact”, the “PMN-MDSC recruitment in response to anti-PD-1 Ab therapy” value ([2]; NLRP3 inhibition combined with anti-PD-1 Ab (200 μg i.p. every 3 days)) was “diminished” and the “levels of tumor-infiltrating CD8+ T cells” value ([2]; NLRP3 inhibitor MCC950 combined with anti-PD-1 Ab) was “enhanced”. The “tumor progression in vivo” value ([2]; NLRP3 inhibitor MCC950 combined with anti-PD-1 Ab, beyond what was observed with anti-PD-1 Ab monotherapy) was “suppressed”, the “HSP70 release (plasma ELISA)” value ([2]; combined anti-PD-1 Ab and NLRP3 inhibition) was “suppressed” and the “Cxcl5 levels (tumor qRT-PCR)” value [2, 3] was “suppressed”. For the same compound, the “Wnt5a expression (whole-tissue Western blot)” value [2, 3] was “suppressed”, the “caspase-1 cleavage (whole-tissue Western blot)” value [2, 3] was “suppressed” and the “expression of the cytolytic T cell marker Gzmb (tumor qRT-PCR)” value [2, 3] was “enhanced”.
